Assay results from patent publication US20240124444A1 (Celgene Corporation, priority 2020, published 2024).

Test system: C. parvum strain UGA1
Experiment: C. parvum growth inhibition assay (Nluc luminescence in HCT-8 cells)
Format: cell-based, Cryptosporidium parvum
Conditions: for inhibition at 1 µM / inhibition at 10 µM / EC50: Cryptosporidium parvum; for inhibition at 1 µM / inhibition at 10 µM: HCT-8; for inhibition at 1 µM: read-out: % inh @ 1 uM C. parvum; for inhibition at 10 µM: read-out: % inh @ 10 uM C. parvum; for EC50: HCT-8, 48 h, C. parvum growth inhibition in HCT-8 cells, 48 hours, 6 concentrations 10-0.04 μM
[1] = single point inhibition at 1 uM
[2] = single point inhibition at 10 uM

| SMILES | inhibition at 1 µM [1] [%] | inhibition at 10 µM [2] [%] | EC50 [µM] | also measured |
| --- | --- | --- | --- | --- |
| Cn1cc(C(=O)Nc2cc3[nH]c(-c4ccnc(OC5CC(O)C5)n4)cc3cn2)cn1 (stereo not drawn) [Example 324, N-(2-(2-(3-hydroxycyclobutoxy)pyrimidin-4-yl)-1H-pyrrolo[3,2-c]pyridin-6-yl)-1-methyl-1H-pyrazole-4-carboxamide] | 0 to 33 | 0 to 33 |  |  |
| Cn1cc(C(=O)Nc2cc3[nH]c(-c4ccnc(O[C@H]5CC[C@@H](O)CC5)n4)cc3cn2)cn1 [Example 325, N-(2-(2-((1s,4s)-4-hydroxycyclohexyloxy)pyrimidin-4-yl)-1H-pyrrolo[3,2-c]pyridin-6-yl)-1-methyl-1H-pyrazole-4-carboxamide] |  |  |  | % inh @ 1 uM C. parvum [1]: D (single point inhibition values of 0-33% (activity level D)); % inh @ 10 uM C. parvum [2]: D (single point inhibition values of 0-33% (activity level D)) |
| Cc1cc2cnc(NC(=O)C3CC3)cc2[nH]1 [Example 327, N-(2-methyl-1H-pyrrolo[3,2-c]pyridin-6-yl)cyclopropanecarboxamide] | 0 to 33 | 0 to 33 |  |  |
| Cc1cc(-c2cc3cnc(NC(=O)c4cnn(C)c4)cc3[nH]2)ncn1 [Example 328, 1-methyl-N-(2-(6-methylpyrimidin-4-yl)-1H-pyrrolo[3,2-c]pyridin-6-yl)-1H-pyrazole-4-carboxamide] | 0 to 33 | 0 to 33 |  |  |
| Cc1cc(-c2cc3cnc(NC(=O)C4CC4)cc3n2C(C)C)ccn1 [Example 329, N-(1-isopropyl-2-(2-methylpyridin-4-yl)-1H-pyrrolo[3,2-c]pyridin-6-yl)cyclopropanecarboxamide] | 0 to 33 | 0 to 33 |  |  |
| O=C(Nc1cc2[nH]c(-c3cnc[nH]3)cc2cn1)C1CC1 [Example 330, N-(2-(1H-imidazol-5-yl)-1H-pyrrolo[3,2-c]pyridin-6-yl)cyclopropanecarboxamide] | 0 to 33 | 0 to 33 |  |  |
| Cn1cc(C(=O)Nc2cc3[nH]c(-c4cnn(C)c4)cc3cn2)cn1 [Example 331, 1-methyl-N-(2-(1-methyl-1H-pyrazol-4-yl)-1H-pyrrolo[3,2-c]pyridin-6-yl)-1H-pyrazole-4-carboxamide] | 0 to 33 | 0 to 33 |  |  |
| Cn1cc(C(=O)Nc2cc3[nH]c(-c4cccnc4)cc3cn2)cn1 [Example 332, 1-methyl-N-(2-(pyridin-3-yl)-1H-pyrrolo[3,2-c]pyridin-6-yl)-1H-pyrazole-4-carboxamide] | 0 to 33 | 0 to 33 |  |  |
| Cc1cc(-c2cc3cnc(NC(=O)C4CC4)cc3n2CCN(C)C)ccn1 [Example 333, N-(1-(2-(dimethylamino)ethyl)-2-(2-methylpyridin-4-yl)-1H-pyrrolo[3,2-c]pyridin-6-yl)cyclopropanecarboxamide] | 0 to 33 | 0 to 33 |  |  |
| Cn1cc(C(=O)Nc2cc3[nH]c(-c4ccc(F)cn4)cc3cn2)cn1 [Example 334, N-(2-(5-fluoropyridin-2-yl)-1H-pyrrolo[3,2-c]pyridin-6-yl)-1-methyl-1H-pyrazole-4-carboxamide] | 0 to 33 | 0 to 33 |  |  |
| Cc1nc(-c2cc3cnc(NC(=O)C4CC4)cc3[nH]2)co1 [Example 335, N-(2-(2-methyloxazol-4-yl)-1H-pyrrolo[3,2-c]pyridin-6-yl)cyclopropanecarboxamide] | 0 to 33 | 0 to 33 |  |  |
| CN1CCC(c2cc3cnc(NC(=O)c4cnn(C)c4)cc3[nH]2)CC1 [Example 336, 1-methyl-N-(2-(1-methylpiperidin-4-yl)-1H-pyrrolo[3,2-c]pyridin-6-yl)-1H-pyrazole-4-carboxamide] | 0 to 33 | 0 to 33 |  |  |
| Cc1cc(Nc2cc3[nH]c(-c4cccnc4)cc3cn2)cc(-n2cncn2)c1 [Example 337, N-(3-methyl-5-(1H-1,2,4-triazol-1-yl)phenyl)-2-(pyridin-3-yl)-1H-pyrrolo[3,2-c]pyridin-6-amine] | 0 to 33 | 0 to 33 |  |  |
| CC(C)n1c(-c2ccnc(NCC(F)(F)F)n2)cc2cnc(NC(=O)c3cnn(C)c3)cc21 [Example 338, N-(1-isopropyl-2-(2-(2,2,2-trifluoroethylamino)pyrimidin-4-yl)-1H-pyrrolo[3,2-c]pyridin-6-yl)-1-methyl-1H-pyrazole-4-carboxamide] | 0 to 33 | 0 to 33 |  |  |
| Cc1cc(Nc2cc3[nH]c(-c4ccnc(C#N)c4)cc3cn2)cc(-n2cncn2)c1 [Example 339, 4-(6-(3-methyl-5-(1H-1,2,4-triazol-1-yl)phenylamino)-1H-pyrrolo[3,2-c]pyridin-2-yl)picolinonitrile] | 0 to 33 | 0 to 33 |  |  |
| Cc1cc(-c2cc3cnc(NC(=O)C4CC4)cc3[nH]2)ccc1F [Example 340, N-(2-(4-fluoro-3-methylphenyl)-1H-pyrrolo[3,2-c]pyridin-6-yl)cyclopropanecarboxamide] | 0 to 33 | 0 to 33 |  |  |
| Cn1cc(C(=O)Nc2cc3[nH]c(C(F)(F)F)cc3cn2)cn1 [Example 341, 1-methyl-N-(2-(tirfluoromethyl)-1H-pyrrolo[3,2-c]pyridin-6-yl)-1H-pyrazole-4-carboxamide] | 0 to 33 | 0 to 33 |  |  |
| Cn1cnc(-c2cc3cnc(NC(=O)C4CC4)cc3n2C)c1 [Example 342, N-(1-methyl-2-(1-methyl-1H-imidazol-4-yl)-1H-pyrrolo[3,2-c]pyridin-6-yl)cyclopropanecarboxamide] |  |  | > 1 |  |
| COc1nccc(-c2cc3cnc(NC(=O)C4CC4)cc3n2CCO)n1 [Example 343, N-(1-(2-hydroxyethyl)-2-(2-methoxypyrimidin-4-yl)-1H-pyrrolo[3,2-c]pyridin-6-yl)cyclopropanecarboxamide] |  |  | > 1 |  |

| SMILES | inhibition at 1 µM [1] [%] | inhibition at 10 µM [2] [%] | EC50 [µM] | also measured |
| --- | --- | --- | --- | --- |
| CCn1c(-c2ccnc(OC)n2)cc2cnc(NC(=O)C3CC3)cc21 [Example 344, N-(1-ethyl-2-(2-methoxypyrimidin-4-yl)-1H-pyrrolo[3,2-c]pyridin-6-yl)cyclopropanecarboxamide] |  |  | 0.5 to 1 |  |
| Cn1ccc(-c2cc3cnc(NC(=O)C4CC4)cc3n2C)n1 [Example 345, N-(1-methyl-2-(1-methyl-1H-pyrazol-3-yl)-1H-pyrrolo[3,2-c]pyridin-6-yl)cycloproapnecarboxamide] |  |  | > 1 |  |
| Cc1cccc(-c2cc3cnc(NC(=O)C4CC4)cc3n2C)c1 [Example 346, N-(1-methyl-2-m-tolyl-1H-pyrrolo[3,2-c]pyridin-6-yl)cyclopropanecarboxamide] |  |  | > 1 |  |
| Cc1ccc(-c2cc3cnc(NC(=O)C4CC4)cc3n2C)nc1 [Example 347, N-(1-methyl-2-(5-methylpyridin-2-yl)-1H-pyrrolo[3,2-c]pyridin-6-yl)cyclopropanecarboxamide] |  |  | > 1 |  |
| Cn1cnc(-c2cc3cnc(NC4CCOCC4)cc3n2C)c1 [Example 348, 1-methyl-2-(1-methyl-1H-imidazol-4-yl)-N-(tetrahydro-2H-pyran-4-yl)-1H-pyrrolo[3,2-c]pyridin-6-amine] |  |  | > 1 |  |
| c1ccc(-c2cc3cnc(NC4CCOCC4)cc3[nH]2)nc1 [Example 349, 2-(pyridin-2-yl)-N-(tetrahydro-2H-pyran-4-yl)-1H-pyrrolo[3,2-c]pyridin-6-amine] |  |  | > 1 |  |
| Cc1ccnc(-c2cc3cnc(NC4CCOCC4)cc3[nH]2)c1 [Example 350, 2-(4-methylpyridin-2-yl)-N-(tetrahydro-2H-pyran-4-yl)-1H-pyrrolo[3,2-c]pyridin-6-amine] |  |  | > 1 |  |
| Cc1ccc(-c2cc3cnc(NC4CCOCC4)cc3[nH]2)cc1 [Example 351, N-(tetrahydro-2H-pyran-4-yl)-2-p-tolyl-1H-pyrrolo[3,2-c]pyridin-6-amine] |  |  | > 1 |  |
| Cc1cccc(-c2cc3cnc(NC4CCOCC4)cc3[nH]2)c1 [Example 352, N-(tetrahydro-2H-pyran-4-yl)-2-m-tolyl-1H-pyrrolo[3,2-c]pyridin-6-amine] |  |  | > 1 |  |
| c1cc(-c2cc3cnc(NC4CCOCC4)cc3[nH]2)ccn1 [Example 353, 2-(pyridin-4-yl)-N-(tetrahydro-2H-pyran-4-yl)-1H-pyrrolo[3,2-c]pyridin-6-amine] |  |  | < 0.5 |  |
| Cn1cc(-c2cc3cnc(NC4CCOCC4)cc3[nH]2)cn1 [Example 354, 2-(1-methyl-1H-pyrazol-4-yl)-N-(tetrahydro-2H-pyran-4-yl)-1H-pyrrolo[3,2-c]pyridin-6-amine] |  |  | > 1 |  |
| Cc1ccccc1-c1cc2cnc(NC3CCOCC3)cc2[nH]1 [Example 357, N-(tetrahydro-2H-pyran-4-yl)-2-o-tolyl-1H-pyrrolo[3,2-c]pyridin-6-amine] |  |  | > 1 |  |
| Cn1c(-c2ccnc(NCC(F)(F)F)n2)cc2cnc(NC3CCOCC3)cc21 [Example 358, 1-methyl-N-(tetrahydro-2H-pyran-4-yl)-2-(2-(2,2,2-trifluoroethylamino)pyrimidin-4-yl)-1H-pyrrolo[3,2-c]pyridin-6-amine] |  |  | < 0.5 |  |
| CC(C)c1cc2cnc(NC3CCOCC3)cc2[nH]1 [Example 359, 2-isopropyl-N-(tetrahydro-2H-pyran-4-yl)-1H-pyrrolo[3,2-c]pyridin-6-amine] |  |  | > 1 |  |
| FC(F)(F)CNc1cc(-c2cc3cnc(NC4CCOCC4)cc3[nH]2)ncn1 [Example 360, N -(tetrahydro-2H-pyran-4-yl)-2-(6-(2,2,2-trifluoroethylamino)pyrimidin-4-yl)-1H-pyrrolo[3,2-c]pyridin-6-amine] |  |  | < 0.5 |  |
| CCc1cc2cnc(NC3CCOCC3)cc2[nH]1 [Example 361, 2-ethyl-N-(tetrahydro-2H-pyran-4-yl)-1H-pyrrolo[3,2-c]pyridin-6-amine] |  |  | > 1 |  |
| Cc1cc(-c2[nH]c3cc(NC4CCOCC4)ncc3c2C)ccn1 [Example 362, 3-methyl-2-(2-methylpyridin-4-yl)-N-(tetrahydro-2H-pyran-4-yl)-1H-pyrrolo[3,2-c]pyridin-6-amine] |  |  | > 1 |  |
| FC(F)(F)CNc1cc(-c2cc3cnc(NC4CCOCC4)cc3[nH]2)ccn1 [Example 363, N-(tetrahydro-2H-pyran-4-yl)-2-(2-(2,2,2-trifluoroethylamino)pyridin-4-yl)-1H-pyrrolo[3,2-c]pyridin-6-amine] |  |  | < 0.5 |  |
